Reference: patent US12421260B2, “Neurokinin-1 antagonist” (SHANGHAI SHENGDI PHARMACEUTICAL CO., LTD, priority 2019, dated 2025)
Converted amounts (≈) assume the structure as drawn.

Experiments:
[1] = Water solubility (Test Example 1); format: physicochemical; conditions: PH = 3
Experimental: 1.1. Preparation of Reagents
The 100 mL strength reagents were prepared as follows:
pH=3.0: phosphate buffer solution: 100 ml of 20 mmol/L NaH2PO4, 0.1M H3PO4, adjusting pH to 3.0.
pH=4.0: phosphate buffer solution: 100 ml of 20 mmol/L NaH2PO4, 0.1M H3PO4, adjusting pH to 4.0. […]
An appropriate amount of test compound was accurately weighed. The solution was added at a small amount each time for several times and stirred until the compound was dissolved, and the content of the compound in the solution was determined.

[2] = Plasma stability test (Test Example 3); format: in vitro ADME; conditions: human plasma; for plasma concentration of the compound of the examples / plasma concentration of rolapitant after metabolism of the compound of the examples: 37° C.; for stability and metabolism to rolapitant in plasma (in words): up to 180 min
Experimental: The compounds of Example 4, Example 6, Example 10 and Example 11.
Human fresh plasma was donated by volunteers with informed consent.
1) The test compounds in Table 3 were respectively prepared into 30 mM stock solutions with DMSO for later use.
2) The 30 mM stock solution was diluted with DMSO solution to solution I at a concentration of 1600 μM. Then the 1600 μM solution I was diluted with acetonitrile (ACN) to a working solution II at a concentration of 16 μM.
3) 7 time points of 0, 15, 30, 60, 90, 120 and 180 min were set in the experiment with two parallel samples for each time point. Two sample groups were set for each compound. 75 μL plasma and 5 μL of the above prepared working solution II with a concentration of 16 μM were added to each group. The reaction system was incubated at 37° C. until the preset time when the reaction was stopped by 300 μL of the ACN solution containing the internal standard. The reaction mixture was centrifuged at 3700 rpm for 10 min, and the supernatant was collected for analysis.
4) Preparation of the standard curve: the previously diluted 1600 μM solution I was diluted with acetonitrile to 1.5 μM/mL solution III as the standard curve for later use. The standard curve concentration was set to […]. After dilution of each concentration of the standard curve, 75 μL plasma was added to 5 μL of each concentration point at a final concentration of 0.02, 0.05, 0.1, 0.25, 0.75, 1.0 and 1.5 uM, respectively. 300 μL stop solution was then added to the samples quickly which was then centrifuged at 3700 rpm for 10 min, and the supernatant was collected for LC-MSMS analysis.

[3] = Chemical stability of the compounds (Test Example 1); format: physicochemical; conditions: purity loss after placing for 7 days; 4° C. and room temperature
Experimental: 2.1 Test of Stability of the Compounds
About 1 mg of sample was weighed into a vial, then the vial was placed in a vacuum bag and the bag was vacuumized. Then the bag was put into a container containing color-changing silica gel and sealed. Two parallel samples were prepared. Enough samples were prepared according to the sampling time point and placed at 4° C. and room temperature respectively.

C[C@@H](OC[C@@]1(c2ccccc2)CC[C@]2(CCC(=O)N2C(=O)OCC(=O)O)CN1)c1cc(C(F)(F)F)cc(C(F)(F)F)c1 [Example 6]
solubility ([1]; phosphate buffer, aqueous buffer, thermodynamic from solid): 1120 µg/mL (≈ 1860 µM) | plasma concentration of the compound of the examples ([2]; 0 min): 980 nM | plasma concentration of the compound of the examples ([2]; 15 min): 850 nM | plasma concentration of the compound of the examples ([2]; 30 min): 910 nM | plasma concentration of the compound of the examples ([2]; 60 min): 850 nM | plasma concentration of the compound of the examples ([2]; 90 min): 770 nM | plasma concentration of the compound of the examples ([2]; 120 min): 700 nM | plasma concentration of the compound of the examples ([2]; 180 min): 530 nM | stability and metabolism to rolapitant in plasma (in words) [2]: overall amount of metabolism in plasma is relatively small | Chemical stability [3]: Good (purity reduced by <0.5% after placing for 7 days)

CC(C)[C@H](N)C(=O)OCCOC(=O)N1C[C@@]2(CCC(=O)N2)CC[C@@]1(CO[C@H](C)c1cc(C(F)(F)F)cc(C(F)(F)F)c1)c1ccccc1.O=C(O)C(F)(F)F [Example 11]
Water solubility [1]: 2.81 mg/mL(PH = 3) mg/ml | plasma concentration of rolapitant after metabolism of the compound of the examples ([2]; 0 min): 10 nM | plasma concentration of the compound of the examples ([2]; 0 min): 1010 nM | plasma concentration of rolapitant after metabolism of the compound of the examples ([2]; 15 min): 0 nM | plasma concentration of the compound of the examples ([2]; 15 min): 990 nM | plasma concentration of rolapitant after metabolism of the compound of the examples ([2]; 30 min): 0 nM | plasma concentration of the compound of the examples ([2]; 30 min): 910 nM | plasma concentration of rolapitant after metabolism of the compound of the examples ([2]; 60 min): 10 nM | plasma concentration of the compound of the examples ([2]; 60 min): 920 nM | plasma concentration of rolapitant after metabolism of the compound of the examples ([2]; 90 min): 0 nM | plasma concentration of the compound of the examples ([2]; 90 min): 1030 nM | plasma concentration of rolapitant after metabolism of the compound of the examples ([2]; 120 min): 0 nM | plasma concentration of the compound of the examples ([2]; 120 min): 970 nM | plasma concentration of rolapitant after metabolism of the compound of the examples ([2]; 180 min): 0 nM | plasma concentration of the compound of the examples ([2]; 180 min): 950 nM | stability and metabolism to rolapitant in plasma (in words) [2]: relatively stable in plasma | Chemical stability [3]: Good (purity reduced by <0.5% after placing for 7 days)
